The test system of the assay is cultured human mast cells (CHMC). The assay can be described thus: CHMC low cell density IgE activation: tryptase assay. The class given is cell-based. The conditions noted are these: low cell density CHMC, IgE activation. In short, it runs like this: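 Tryptase release, fluorogenic substrate, 30 min RT. Prior anti-IgE stimulation of CHMC, 30 min, 37 °C, after 1 hr preincubation at 1000–1500 cells/well in MT; unstimulated wells received MT.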

Setting [1] is: tryptase release, 8 point, read-out: LD Tryptase, CHMC, IgE, 8 pt.
Where [2] appears, read: Homo sapiens, Mast cell, tryptase, 3 pt, read-out: LD Tryptase, CHMC, IgE, 3 pt.
Setting [3] is: tryptase, 3 pt, read-out: LD Tryptase, CHMC, IgE, 3 pt.
Where [4] appears, read: tryptase, 8 pt, read-out: LD Tryptase, CHMC, IgE, 8 pt.

pIC50: −log10 of the molar value. Counter-ions that a name gives are not always drawn. Like-named read-outs stand apart in the source and are kept apart here.

The record followed here is patent US20220073536A1 (Rigel Pharmaceuticals, Inc., priority 2003, published 2022).

In the case of `CNC(=O)Cn1ccc2cc(Nc3ncc(F)c(Nc4ccc(Cl)c(OC)c4)n3)ccc21` [Compound 653, N4-(4-Chloro-3-methoxyphenyl)-5-fluoro-N2-[1-(N-methylamino)carbonylmethyleneindol-5-yl]-2,4-pyrimidinediamine], the pIC50 under setting [1] is above 5.00.

Consider `CNC(=O)Cn1ccc2cc(Nc3ncc(F)c(Nc4ccc(OC)c(Cl)c4)n3)ccc21` [Compound 654, N4-(3-Chloro-4-methoxyphenyl)-5-fluoro-N2-[1-(N-methylamino)carbonylmethyleneindol-5-yl]-2,4-pyrimidinediamine], for which the pIC50 under setting [1] is above 5.00.

Turning to `CNC(=O)Cn1ccc2cc(Nc3ncc(F)c(Nc4ccc5c(c4)OCCO5)n3)ccc21` [Compound 655, N4-(3,4-Ethylenedioxyphenyl)-5-fluoro-N2-[1-(N-methylamino)carbonylmethyleneindol-5-yl]-2,4-pyrimidinediamine], under setting [1], the pIC50 is above 5.00.

As to `CNC(=O)Cn1ccc2cc(Nc3ncc(F)c(Nc4ccc(C(=O)NC)c(Cl)c4)n3)ccc21` [Compound 656, N4-[3-Chloro-4-(N-methylamino)carbonylphenyl]-5-fluoro-N2-[1-(N-methylamino)carbonylmethyleneindol-5-yl]-2,4-pyrimidinediamine], under setting [1], the pIC50 is above 5.00.

For `COc1cc(Nc2nc(Nc3cccc(-c4ncco4)c3)ncc2F)cc(OC)c1OC` [Compound 667], the pIC50 (Homo sapiens, Mast cell, tryptase release, 3 point, read-out: LD Tryptase, CHMC, IgE, 3 pt) is above 5.00.

`COc1ccc(Nc2ncc(F)c(Nc3ccc4c(c3)OCCO4)n2)c(OC)c1OC` [Compound 668, N4-(3,4-Ethylenedioxyphenyl)-5-fluoro-N2-(2,3,4-trimethoxyphenyl)-2,4-pyrimidinediamine]: the pIC50 under setting [2] was above 5.00.

For the molecule `COc1ccc(Nc2nc(Nc3ccc(OC)c(OC)c3OC)ncc2F)cc1Cl` [Compound 669, N4-(3-Chloro-4-methoxyphenyl)-5-fluoro-N2-(2,3,4-trimethoxyphenyl)-2,4-pyrimidinediamine], under setting [2], the pIC50 is below 5.00.

Consider `COc1cc(Nc2nc(Nc3ccc(OC)c(OC)c3OC)ncc2F)ccc1Cl` [Compound 670], for which the pIC50 under setting [2] is below 5.00.

In the case of `COc1ccc(Nc2ncc(F)c(Nc3ccc(OC(F)(F)F)c(Cl)c3)n2)c(OC)c1OC` [Compound 671], the pIC50 under setting [2] was above 5.00.

Consider `COc1ccc(Nc2ncc(F)c(Nc3ccc4c(c3)NC(=O)C(C)(C)O4)n2)c(OC)c1OC` [Compound 672], for which the pIC50 under setting [2] was above 5.00.

`COc1cc(Nc2ncc(F)c(Nc3ccc4c(n3)NC(=O)C(C)(C)O4)n2)cc(OC)c1OC.O=S(=O)(O)c1ccc(O)cc1` [Compound 676, N4-(2,2-Dimethyl-3-oxo-4H-5-pyrid[1,4]oxazin-6-yl)-5-fluoro-N2-(3,4,5-trimethoxyphenyl)-2,4-pyrimidinediamine 4-Hydroxybenzenesulfonic Acid Salt]: the pIC50 is above 5.00 under setting [3] and above 5.00 under setting [4].

For the molecule `COc1cc(Nc2ncc(F)c(Nc3ccc4c(n3)NC(=O)C(C)(C)O4)n2)cc(OC)c1OC.O=S(=O)(O)c1cccnc1` [Compound 678, N4-(2,2-Dimethyl-3-oxo-4H-5-pyrid[1,4]oxazin-6-yl)-5-fluoro-N2-(3,4,5-trimethoxyphenyl)-2,4-pyrimidinediamine 0.5 Pyridine-3-sulfonic Acid Salt], the pIC50 under setting [3] is above 5.00 and the pIC50 under setting [4] was above 5.00.

`CCc1ccc(S(=O)(=O)O)cc1.COc1cc(Nc2ncc(F)c(Nc3ccc4c(n3)NC(=O)C(C)(C)O4)n2)cc(OC)c1OC` [Compound 679, N4-(2,2-Dimethyl-3-oxo-4H-5-pyrid[1,4]oxazin-6-yl)-5-fluoro-N2-(3,4,5-trimethoxyphenyl)-2,4-pyrimidinediamine p-Ethylbenzenesulfonic Acid Salt]: the pIC50 by setting is: under setting [3], above 5.00; under setting [4], above 5.00.

Take `CNC(=O)Cn1ccc2cc(Nc3ncc(F)c(Nc4ccc5c(n4)NC(=O)C(C)(C)O5)n3)ccc21` [Compound 683, N4-(2,2-Dimethyl-3-oxo-4H-5-pyrid[1,4]oxazin-6-yl)-5-fluoro-N2-[1-(N-methylamino)carbonylmethyleneindol-5-yl]-2,4-pyrimidinediamine]: the pIC50 was above 5.00 under setting [3] and above 5.00 under setting [4].

`Cc1cc(Nc2ncc(F)c(Nc3ccc4c(n3)NC(=O)C(C)(C)O4)n2)cc(C)c1Cl` [Compound 684, N2-(4-Chloro-3,5-dimethylphenyl)-N4-(2,2-dimethyl-3-oxo-4H-5-pyrid[1,4]oxazin-6-yl)-5-fluoro-2,4-pyrimidinediamine p-Toluenesulfonic Acid Salt]: the pIC50 under setting [3] is above 5.00.

For `CC1(C)Oc2ccc(Nc3nc(Nc4cc(Cl)c(O)c(Cl)c4)ncc3F)nc2NC1=O` [Compound 686, N4-(2,2-Dimethyl-3-oxo-4H-5-pyrid[1,4]oxazin-6-yl)-N2-(3,5-dichloro-4-hydroxyphenyl)-5-fluoro-2,4-pyrimidinediamine], the pIC50 is above 5.00 under setting [3] and above 5.00 under setting [4].

Turning to `CN1C(=O)C(C)(C)Oc2ccc(Nc3ncc(F)c(Nc4ccc5c(n4)N(C)C(=O)C(C)(C)O5)n3)nc21` [Compound 687, N2,N4-Bis (3-oxo-2,2,4-trimethyl-5-pyrid[1,4]oxazin-6-yl)-5-fluoro-2,4-pyrimidinediamine], under setting [3], the pIC50 was above 5.00.

Turning to `COC(=O)CN1C(=O)C(C)(C)Oc2ccc(Nc3ccnc(Nc4ccc5c(n4)N(CC(=O)OC)C(=O)C(C)(C)O5)n3)nc21` [Compound 688, N2,N4-Bis (2,2-dimethyl-4-carbomethoxymethyl-3-oxo-5-pyrid[1,4]oxazin-6-yl)-2,4-pyrimidinediamine], under setting [3], the pIC50 is below 5.00.

On to `COc1cc(Nc2ncc(F)c(Nc3ccc4c(n3)N(C)C(=O)C(C)(C)O4)n2)cc(OC)c1OC` [Compound 689, 5-Fluoro-N4-(3-oxo-2,2,4-trimethyl-5-pyrid[1,4]oxazin-6-yl)-N2-(3,4,5-trimethoxyphenyl)-2,4-pyrimidinediamine], for which, under setting [4], the pIC50 is above 5.00.

Consider `COC(=O)CN1C(=O)C(C)(C)Oc2ccc(Nc3nc(Nc4cc(OC)c(OC)c(OC)c4)ncc3F)nc21` [Compound 690, N4-(2,2-Dimethyl-4-carbomethoxymethyl-3-oxo-5-pyrid[1,4]oxazin-6-yl)-5-fluoro-N2-(3,4,5-trimethoxyphenyl)-2,4-pyrimidinediamine], for which the pIC50 under setting [4] was above 5.00.

`COC(=O)CN1C(=O)C(C)(C)Oc2ccc(N(CC(=O)OC)c3nc(Nc4cc(OC)c(OC)c(OC)c4)ncc3F)nc21` [Compound 691, N4-(2,2-Dimethyl-4-carbomethoxymethyl-3-oxo-5-pyrid[1,4]oxazin-6-yl)-5-fluoro-N4-carbomethoxymethyl-N2-(3,4,5-trimethoxyphenyl)-2,4-pyrimidinediamine]: the pIC50 under setting [3] is above 5.00.

Take `COc1cc(Nc2ncc(F)c(Nc3ccc4c(n3)NC(=O)C(C)(C)O4)n2)cc(OC)c1OCCN1CCOCC1` [Compound 692, N2-[3,5-Dimethoxy-4-(2-(N-morpholino)ethyloxo)phenyl]-N4-(2,2-dimethyl-3-oxo-4H-5-pyrid[1,4]oxazin-6-yl)-5-fluoro-2,4-pyrimidinediamine]: the pIC50 is above 5.00 under setting [3] and above 5.00 under setting [4].

In the case of `CC1(C)Oc2ccc(Nc3ncc(F)c(Nc4ccc5c(n4)NC(=O)C(C)(C)O5)n3)nc2NC1=O` [Compound 693, N2, N4-Bis (2,2-dimethyl-3-oxo-4H-5-pyrid[1,4]oxazin-6-yl)-5-fluoro-2,4-pyrimidinediamine], the pIC50 under setting [3] is above 5.00.
